The values below come from PMC9704087, “Solid lipid nanoparticle as an effective drug delivery system of a novel curcumin derivative: formulation, release in vitro and pharmacokinetics in vivo” (Pharmaceutical Biology, 2022).

Series [1] is described as follows: In vitro drug release, dialysis membrane diffusion technique. The format is physicochemical. The procedure:
The release of CUD-SLN and free CUD in vitro was studied using a dialysis membrane diffusion technique (MWCO 8000–14,000) (He et al. [2020]). Due to the low solubility of CUD in the buffer, Tween 80 was added to satisfy the leaking conditions. A total of 500 mL of PBS buffer with 10% w/v Tween 80 (pH 7.35) was used as a release medium. Next, 2 mL of freshly prepared CUD-SLN (1 mg/mL) was transferred to the dialysis bags, and 2 mg free CUD (suspended in 2 mL 0.5% w/v CMC-Na) was transferred to dialysis bags as a control. The test bags were immersed in a release medium at 37 ± 0.5 °C and stirred at 100 rpm using a dissolution apparatus (ZRS-8G, Intelligent dissolution tester, ZRS-8G, Tianjin, China). An aliquot of the sample (1 mL) was removed from the release medium at 15 and 30 min and 1, 2, 4, 6, 8, 12, 24 and 48 h. After each sampling, the blank dissolution medium was replenished with the same temperature and volume. Removed samples were filtered through a 0.22 μm filter, the CUD content was analysed by a UV–vis spectrophotometer, and the analytical method described before. The in vitro release data of the drug were fitted with the zero-order release equation, the first-order release equation and the Higuchi equation (Ma et al. [2019]).
(§1) Evaluation of the comprehensive design experiment was performed by SPSS 17.0 software (SPSS Inc., Chicago, IL). Fitting of the release curve was performed by Origin 8.0 software. Pharmacokinetic data were processed by DAS 2.1.1 software to obtain relevant pharmacokinetic parameters. Student’s t-test for two groups and one-way ANOVA for multiple groups were employed for the data analysed. p < 0.05 was considered statistically significant.

A short description of series [2]: Pharmacokinetic study after intravenous injection. The conditions noted are these: male, Sprague Dawley, rat, SD rats, 5 mg/kg intravenous, plasma, n = 5. The series is classed as in vivo. The procedure:
Sprague Dawley (SD) male rats aged 8 weeks weighing 250–300 g were provided by the Laboratory Animal Center of Southwest Medical University and were placed in a pathogen-free environment, and had free access to food and water. Studies involving animals were approved (approval number: SCXK (Chuan) 2013-17) by the Ethics Committee of Southwest Medical University.
Rats that were used for the pharmacokinetic study were fasted for more than 12 h before use and had free access to water. Rats were randomly divided into two groups (n = 5), namely, the Cur group and CUD-SLN group, Rats in both groups were injected intravenously with 5 mg/kg of corresponding drugs. Approximately, 200 µL of blood was collected using a heparin-coated syringe at 2, 5, 15 and 30 min and at 1, 2, 4, 6, 8, 12, 24, 30, 36, 48, 54, 60, 72 and 84 h after injection. Blood was centrifuged for 10 min at 3000 rpm, and plasma was obtained. Furthermore, 50 µL of acetate buffer (pH 3.5) was added to 100 μL of plasma. After vortexing for 1 min, 0.5 mL of extract solvent (methanol–ethyl acetate 10:90, v/v) was added to the mixture, the mixture was vortexed again for 3 min, followed by centrifugation for 3 min at 8000 rpm. Then, 0.5 mL of supernatant was removed and evaporated with nitrogen flow. Next, 200 μL of reconstituted solvent (acetonitrile contains 0.1% phosphoric acid) was added to the dry residue, vortexed for 4 min, sonicated for 4 min, and centrifuged for 10 min at 10,000 rpm, A total of 50 μL of the supernatant was removed for the high-performance liquid chromatography (HPLC) (1260 Infinity II, Agilent Technologies, Santa Clara, CA) and calculated with the standard curve (Cur: A = 157.21 C + 0.148, R^2=0.9991, range: (0.02, 12) μg/mL; CUD: A = 18.159 C + 0.4884, R^2=0.9998, range: (0.02, 5) μg/mL; A = 46.552 C – 179.81, R^2=0.9997, range: (5, 160) μg/mL). […] The detection wavelength was 409 nm (Guo et al. [2020]).
as §1

In the case of “Carbonic acid 17-(1,5-dimethyl-hexyl)-10,13-dimethyl-2,3,4,7,8,9,10,11,12,13,14,15,16,17-tetradecahydro-1H-cyclopenta[a]phenanthren-3-yl ester 4-[7-(4-hydroxy-3-methoxy-phenyl)-3,5-dioxo-hepta-1,6-dienyl]-2-methoxy-phenyl ester [CUD]”, the “cumulative release of CUD at 48 h” value in series [1] (PBS with 10% w/v Tween 80, pH 7.35, 37 °C, 100 rpm, n = 6) is reported as 60.24 ± 5.08%. Moreover, in series [1] (fit of in vitro release data), the “First-order equation k1” value is given as 0.2258, the “Higuchi's equation kh” value came out at 8.6574 and the “Zero order equation k0” value turned out to be 1.0410.

`COc1cc(/C=C/C(=O)CC(=O)/C=C/c2ccc(O)c(OC)c2)ccc1O` [Cur, Curcumin]: in series [2], the AUC(0-inf) came out at 4880 ng·h/mL, the AUC(0-t) is 4600 ng·h/mL, the peak level (Cmax) was 332 ng/mL and the Tmax is 6 h. Also, in series [2] (read-out: CLz (clearance) (converted)), the clearance is 171 mL/min/kg. In addition, the MRT last in series [2] (read-out: MRT0–t) turned out to be 9.53 h. For the same molecule, in series [2] (read-out: MRT0–∞), the MRT inf is 10.8 h. Moreover, the half-life in series [2] (read-out: t1/2z (half-life) (converted)) was 5.6 h.

The term AUC(0-inf) denotes the area under the concentration-time curve extrapolated to infinity. For orientation: AUC(0-t) means exposure summed from dosing to a finite time, without extrapolation to infinity. A lower AUC(0-t) goes with less exposure. As usually defined, the Cmax is the maximum level reached in the sampled fluid or tissue. As usually defined, the Tmax is the time at which the peak concentration occurs. In general, clearance refers to the volume of plasma or blood freed of the substance per unit of time.
